Measurements from patent US8026235B1, “Pyridyl benzoxazine derivatives, pharmaceutical composition comprising the same, and use thereof” (Daewoong Pharmaceutical Co., Ltd., priority 2010, dated 2011).
Read-outs that look alike come from different tables or passages of the source.

Columns and labels:
[1] = tested on: PBQ-induced writhing in ICR male mice; experiment: Phenyl-p-quinone (PBQ)-induced writhing experiment using mice (effect on pain); type: in vivo; conditions: oral, PBQ (0.02%) i.p. after 1 hour; for I.A. (inhibitory activity), % inhibition rate class: writhing counted for 10 min
Procedure: In order to evaluate the effect on pain of the compounds prepared in the Examples 1 to 9, behaviors such as twisting or writhing of body resulted from pain were verified by the phenyl-p-quinone (PBQ)-induced writhing experiment using mice.
5 week-old ICR male mice were used as experimental animals and PBQ (0.02%), as a chemical stimulator. The suspensions of 20 mg of the compounds of the present invention and an excipient such as Na-CMC (sodium carboxymethyl cellulose) in 10 mL of saline were used as test compounds. The test compounds were orally administered to the mice and after 1 hour, PBQ was intraperitoneally administrated in an amount of 10 mL per kg of body weight. The writhing number of each mouse was measured for 10 min starting from 5 min after the administration, and the analgesic effect was verified by counting the reduced number compared to the control group administered with only excipient and calculating the % inhibitory rate according to the following Formula 2. Also, equivalent amounts of SB-705498 were administered as a reference compound for the comparison of the effect on pain between SB-705498 and the compounds of the present invention. % inhibition rate=(writhing # of control group−writhing # of test group)/writhing # of control group×100 [Formula 2]
The inhibitory activity was evaluated from the obtained % inhibition rate, according to the following parameters.

[2] = biological target: T1, human vanilloid-1 (TRPV1) (Homo sapiens, UniProt Q8NER1); experiment: Inhibitory effect on capsaicin-stimulated calcium influx via a vanilloid receptor in hVR-1-HEK293 cells (Fluo-3/AM); type: cell-based; conditions: 1 μM capsaicin
T1 construct: expressed in transfected cells; host or cells: HEK293 Tet-on (hVR-1-HEK293), expression induced with doxycycline
T1 sequence (Q8NER1 whole entry): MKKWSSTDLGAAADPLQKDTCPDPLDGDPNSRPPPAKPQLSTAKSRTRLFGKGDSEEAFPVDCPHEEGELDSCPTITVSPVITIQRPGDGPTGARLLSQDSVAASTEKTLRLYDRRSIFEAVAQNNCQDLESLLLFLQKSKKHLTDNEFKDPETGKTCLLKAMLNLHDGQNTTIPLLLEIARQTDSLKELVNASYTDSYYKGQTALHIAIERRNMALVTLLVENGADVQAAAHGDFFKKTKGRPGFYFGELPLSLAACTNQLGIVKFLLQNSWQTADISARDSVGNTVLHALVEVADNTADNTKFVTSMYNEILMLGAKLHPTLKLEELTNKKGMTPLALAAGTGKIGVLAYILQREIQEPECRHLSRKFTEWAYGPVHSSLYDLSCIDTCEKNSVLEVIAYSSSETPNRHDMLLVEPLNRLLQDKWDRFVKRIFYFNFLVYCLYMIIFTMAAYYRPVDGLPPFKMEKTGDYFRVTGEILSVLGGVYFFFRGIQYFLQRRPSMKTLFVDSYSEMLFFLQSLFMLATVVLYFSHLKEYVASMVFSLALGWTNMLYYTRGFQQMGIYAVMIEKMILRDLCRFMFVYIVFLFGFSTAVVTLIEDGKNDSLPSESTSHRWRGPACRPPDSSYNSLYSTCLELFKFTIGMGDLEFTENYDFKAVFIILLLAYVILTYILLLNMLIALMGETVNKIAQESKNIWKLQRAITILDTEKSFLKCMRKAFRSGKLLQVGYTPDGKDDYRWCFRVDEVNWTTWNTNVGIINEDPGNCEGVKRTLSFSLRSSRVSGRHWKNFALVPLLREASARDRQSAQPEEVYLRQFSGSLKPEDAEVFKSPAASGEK
Excerpt: In order to confirm the antagonistic activities of the inventive compounds, inhibitory effects of the compounds on calcium influx were examined as follows.
hVR-1-HEK293 cell line is a human embryonic kidney (HEK) cell 293 Tet-on strain transformed with a human vanilloid-1 gene (pTRE2hyg-hVR-1 7.8 kb). The cell line can modulate the expression of TRPV1, depending on whether doxycycline, a derivative of tetracycline, is present or not.
In order to elucidate the inhibitory effect on calcium influx, the expression of TRPV1 was induced by culturing hVR-1-HEK293 cell line in a medium containing doxycycline for 2 days.
Specifically, hVR-1-HEK293 cells were cultured in a T75 flask to about 80% confluency, separated from the flask by treating with trypsin solution, and then collected by centrifugation. The cells were suspended in a medium containing 1 μg/mL of doxycycline, and the resulting suspension was diluted to a concentration of 2˜4×10^5 cells/mL 100 μL of the cell suspension was placed in each well of a 96-well black plate. The cells were cultured in 5% CO2 incubator at 37° C. for 2 days, and used for the following procedure.
The compounds, prepared in the Examples 1 to 9 of the present invention, were dissolved in dimethyl sulfoxide (DMSO) to obtain compound samples.
The cells prepared in 1) above were cultured at 37° C. for 90 min in a solution containing Fluo-3/AM, a fluorescent dye, as a calcium indicator so that the fluorescent dye was permeated into the cells. Then the cells were washed three times with D-PBS (Dulbecco's phosphate buffered saline) containing 10 mM HEPES (4-(2-hydroxyethyl)-1-piperazine ethanesulfonic acid) to remove the residual fluorescent dye. 193 μL of D-PBS was added to each well, followed by addition of various concentrations (0.015˜2000 nM) of the compounds. In order to stimulate calcium influx through a vanilloid receptor, the cells were treated with 1 μM of capsaicin. The inhibitory effect of various concentrations (0.015˜2000 nM) of compounds on intracellular calcium influx was measured by using a fluorimeter. Equivalent amounts of (R)-1-(2-bromophenyl)-3-(1-(5-(trifluoromethyl)pyridin-2-yl)pyrrolidin-3-yl)urea (also, referred to SB-705498) was used as a control group. The obtained data were input to the Hill equation represented by the following formula I and the values were analyzed: Intracellular calcium influx=(florescent intensity of experimental group−florescent intensity of background)/(florescent intensity of positive control−florescent intensity of background)×100 [Formula 1]
The inhibitory activities were evaluated from the obtained intracellular calcium influx values according to the following criteria.

[3] = tested on: SD rats (Sprague-Dawley rats); experiment: Assay for body temperature change (rectal temperature) in SD rats; type: in vivo; conditions: single oral administration, rectal temperature up to 8 hr
Procedure: With the knowledge that some TRPV1 antagonists show the side effect of increasing the body temperature (Gavva et al., 2008, Pain, 136, 202-210), changes in body temperature associated with the compounds prepared in the Examples of the present invention were assessed.
7-week-old SD rats (Sprague-Dawley rats) were employed for this evaluation. Each of the compounds of the Examples was orally administered once at a dose of 10 ml/kg by compulsion. Before administration, the compounds were suspended, together with the excipient Na-CMC (sodium carboxymethyl cellulose), in saline 10 mL. Rectal temperatures of the rats were measured 1 hr and immediately (0 hr) prior to administration, and at the 30 min, 1 hr, 2 hr, 4 hr, 6 hr and 8 hr marks after administration using a thermometer (Shibaura Electronic Corporation, TD-300). The data were expressed as mean values ±S.E.M. Statistical data was analyzed by one way ANOVA, and statistical significance was analyzed in comparison with the excipient-treated control using Dunnett's t-test. Meanwhile, N-(4-(6-(4-(trifluoromethyl)phenyl)[…])benzo[d]thiazol-2-yl)acetamide (hereinafter referred to as “AMG-517”) was used at a dose of 3 mg/kg, as a positive control.

[4] = compounds 0.015˜2000 nM, read-out: I.A. (inhibitory activity), IC50 class

| IC50 [2, 4] | Change in Body Temp. [3] | IC50 ([2]; read-out: IC50 on calcium influx) | SMILES | I.A. (inhibitory activity), % inhibition rate class [1] | % inhibition rate of writhing [1] |
| --- | --- | --- | --- | --- | --- |
| 101 to 500 nM | +/− (±<0.5° C.) |  | COc1ccc(N2CCOc3c(-c4nc5ccc(C(C)(C)C)cc5[nH]4)cccc32)nc1 [Example 1, 8-(6-tert-Butyl-1H-benzo[d]imidazol-2-yl)-4-(5-methoxypyridin-2-yl)-3,4-dihydro-2H-benzo[b][1,4]oxazine] | ++ (20˜50%) |  |
| 20 to 100 nM | + (0.5^~1.0° C.) |  | COc1ccc(N2c3cccc(-c4nc5ccc(C(F)(F)F)cc5[nH]4)c3OC[C@@H]2CO)nc1 [Example 2, (S)-(4-(5-methoxypyridin-2-yl)-8-(6-(trifluoromethyl)-1H-benzo[d]imidazol-2-yl)-3,4-dihydro-2H-benzo[b][1,4]oxazin-3-yl)methanol] | ++ (20˜50%) |  |
| 20 to 100 nM | +/− (±<0.5° C.) |  | COc1ccc(N2c3cccc(-c4nc5cc(Cl)c(Cl)cc5[nH]4)c3OC[C@@H]2CO)nc1 [Example 3, (S)-(8-(5,6-dichloro-1H-benzo[d]imidazol-2-yl)-4-(5-methoxypyridin-2-yl)-3,4-dihydro-2H-benzo[B][1,4]oxazin-3-yl)methanol] | ++ (20˜50%) |  |
| 20 to 100 nM | +/− (±<0.5° C.) |  | COc1ccc(N2c3cccc(-c4nc5ccc(OC(F)(F)F)cc5[nH]4)c3OC[C@@H]2CO)nc1 [Example 4, (S)-(4-(5-methoxypyridin-2-yl)-8-(6-(trifluoromethoxy)-1H-benzo[d]imidazol-2-yl)-3,4-dihydro-2H-benzo[b][1,4]oxazin-3-yl)methanol] | ++ (20˜50%) |  |
| < 20 nM | + (0.5^~1.0° C.) |  | COc1ccc(N2c3cccc(-c4nc5c(Br)cc(OC(F)(F)F)cc5[nH]4)c3OC[C@@H]2CO)nc1 [Example 5, (S)-(8-(4-bromo-6-(trifluoromethoxy)-1H-benzo[d]imidazol-2-yl)-4-(5-methoxypyridin-2-yl)-3,4-dihydro-2H-benzo[B][1,4]oxazin-3-yl)methanol] | +++ (51-80%) |  |
| 20 to 100 nM | +/− (±<0.5° C.) |  | COc1ccc(N2c3cccc(-c4nc5cc(F)c(Cl)cc5[nH]4)c3OC[C@@H]2CO)nc1 [Example 6, (S)-(8-(6-chloro-5-fluoro-1H-benzo[d]imidazol-2-yl)-4-(5-methoxypyridin-2-yl)-3,4-dihydro-2H-benzo[b][1,4]oxazin-3-yl)methanol] | +++ (51-80%) |  |
| 101 to 500 nM | + (0.5^~1.0° C.) |  | COc1ccc(N2c3cccc(-c4nc5c(Br)cc(C(F)(F)F)cc5[nH]4)c3OC[C@@H]2CO)nc1 [Example 7, (S)-(8-(4-bromo-6-(trifluoromethyl)-1H-benzo[d]imidazol-2-yl)-4-(5-methoxypyridin-2-yl)-3,4-dihydro-2H-benzo[b][1,4]oxazin-3-yl)methanol] | ++ (20˜50%) |  |
| 20 to 100 nM | +/− (±<0.5° C.) |  | COc1ccc(N2c3cccc(-c4nc5c(Cl)cc(C(F)(F)F)cc5[nH]4)c3OC[C@@H]2CO)nc1 [Example 8, (S)-(8-(4-chloro-6-(trifluoromethyl)-1H-benzo[d]imidazol-2-yl)-4-(5-methoxypyridin-2-yl)-3,4-dihydro-2H-benzo[b][1,4]oxazin-3-yl)methanol] | +++ (51-80%) |  |
| 101 to 500 nM | + (0.5^~1.0° C.) |  | COc1ccc(N2c3cccc(-c4nc5c(Br)cc(Br)cc5[nH]4)c3OC[C@@H]2CO)nc1 [Example 9, (S)-(8-(4,6-dibromo-1H-benzo[d]imidazol-2-yl)-4-(5-methoxypyridin-2-yl)-3,4-dihydro-2H-benzo[b][1,4]oxazin-3-yl)methanol] | ++ (20˜50%) |  |
|  |  | 100 to 150 nM | O=C(Nc1ccccc1Br)N[C@@H]1CCN(c2ccc(C(F)(F)F)cn2)C1 [SB-705498, (R)-1-(2-bromophenyl)-3-(1-(5-(trifluoromethyl)pyridin-2-yl)pyrrolidin-3-yl)urea, reference compound] |  | < 20% |
